Assay results reported in article PMC9000575, “Solution Equilibrium Studies on Salicylidene Aminoguanidine Schiff Base Metal Complexes: Impact of the Hybridization with L-Proline on Stability, Redox Activity and Cytotoxicity” (Molecules, 2022).
Read-outs that look alike come from different tables or passages of the source.

How the values were obtained:
[1] = cited from earlier work
[2] = pH 7.4; cited from earlier work
[3] = tested on: Colo-205 human colon adenocarcinoma cells; set-up: method as in PMID 35287037; settings: Colo-205, 72 h; cited from earlier work
[4] = 30% (v/v) DMSO/H2O; cited from earlier work
[5] = tested on: Colo-320 (doxorubicin-resistant) human colon adenocarcinoma cells; set-up: method as in PMID 35287037; settings: Colo-320, 72 h; cited from earlier work
[6] = tested on: MRC-5 human embryonal lung fibroblast cells; set-up: method as in PMID 35287037; settings: MRC-5, 72 h; cited from earlier work
[7] = literature pKa values of analogous (thio)semicarbazones; type: physicochemical; settings: from literature pKa values (refs 22, 23)
[8] = stability constants of Fe(II) complexes by pH-potentiometry; type: physicochemical; settings: calculated at pH 7.4, cFe = 1 μM, cligand = 10 μM, from overall stability constants reported in Refs. 22, 27, 34
[9] = stability constants of Fe(III) complexes by pH-potentiometry; type: physicochemical; settings: calculated at pH 7.4, cFe = 1 μM, cligand = 10 μM, from overall stability constants reported in Refs. 22, 27, 34
[10] = tested on: Colo-320 (doxorubicin-resistant) human colon adenocarcinoma cells; assay: MTT cytotoxicity test; type: cell-based; settings: Colo-320, 72 h
Method: (§1) All cell culture reagents were obtained from Sigma-Aldrich and plastic ware from Sarstedt (Nümbrecht, Germany). Human colon Colo-205 (chemo-sensitive) and Colo-320 (doxorubicin-resistant) adenocarcinoma and MRC-5 human embryonal lung fibroblast cell lines were purchased from LGC Promochem, Teddington, UK. The colon adenocarcinoma cells were cultured in Roswell Park Memorial Institute (RPMI) 1640 medium supplemented with 10% heat-inactivated fetal bovine serum, 2 mM L-glutamine, 1 mM sodium pyruvate and 100 mM HEPES. The MRC-5 cell line was cultured in Eagle’s Minimal Essential Medium (EMEM, Sigma-Aldrich, St. Louis, MO, USA) supplemented with a non-essential amino acid (NEAA) mixture (Sigma-Aldrich, St. Louis, MO, USA) a selection of vitamins, 10% heat-inactivated foetal bovine serum (FBS), 2 mM L-glutamine (Sigma-Aldrich, St. Louis, MO, USA), 1 mM Na-pyruvate (Sigma-Aldrich, St. Louis, MO, USA), nystatin (Sigma-Aldrich, St. Louis, MO, USA) and a penicillin-streptomycin mixture (Sigma-Aldrich, St. Louis, MO, USA) in concentrations of 100 U/L and 10 mg/L, respectively. The cells were incubated at 37 °C, in a 5% CO2, 95% air atmosphere. All cell lines were detached with Trypsin-Versene® (EDTA) solution for 5 min at 37 °C.
(§2) The tested compounds were dissolved in 90% (v/v) DMSO/H2O using 8 mM concentration, […] in the final samples the DMSO content was always lower than 1%. Then stock solutions were diluted in complete culture medium, and two-fold serial dilutions of compounds were prepared in 100 μL of the medium, horizontally. The semi-adherent colon adenocarcinoma cells were treated with Trypsin-Versene (EDTA) solution. They were adjusted to a density of 1 × 10^4 cells in 100 μL of RPMI 1640 or EMEM medium and were added to each well, with the exception of the medium control wells. The final volume of the wells containing compounds and cells was 200 μL. The plates containing Colo-205, Colo-320 or MRC-5 cells were incubated at 37 °C for 72 h; at the end of the incubation period, 20 μL of MTT solution (from a stock solution of 5 mg/mL) were added to each well. After incubation at 37 °C for 4 h, 100 μL of SDS solution (10% in 0.01 M HCI) were added to each well, and the plates were further incubated at 37 °C overnight. Cell growth was determined by measuring the optical density (OD) at 540/630 nm with a Multiskan EX plate reader (Thermo Labsystems, Cheshire, WA, USA). Inhibition of the cell growth (expressed as IC50: inhibitory concentration that reduces by 50% the growth of the cells exposed to the tested compounds) was determined from the sigmoid curve where 100 − ((ODsample − ODmedium control)/(ODcell control − ODmedium control)) × 100 values were plotted against the logarithm of compound concentrations. Curves were fitted by GraphPad Prism software (2021, Graphpad Software, San Diego, CA, USA) using the sigmoidal dose–response model (comparing variable and fixed slopes). The IC50 values were obtained from at least three independent experiments.

[11] = tested on: Colo-205 human colon adenocarcinoma cells; assay: MTT cytotoxicity test; type: cell-based; settings: Colo-205, 72 h
Method: as §1, §2

[12] = tested on: MRC-5 human embryonal lung fibroblast cells; assay: MTT cytotoxicity test; type: cell-based; settings: MRC-5, 72 h
Method: as §1, §2

| Compound | E1/2 of the Fe(III)/Fe(II) redox couple of the iron complexes ([1]; STSC complexes, 'as it was found', no reference given) [V vs. NHE] | logD7.4 [2] | IC50 [3] [µM] | pK1 [4] | pK2 [4] | IC50 [5] [µM] | IC50 [6] [µM] | fraction present in neutral form at pH 7.4 [7] [%] | pFe(II) (−log[Fe(II)]) [8] | pFe(III)* (−logΣ[Fe(III)i(OH)j]) [9] | E1/2 of the Fe(III)/Fe(II) redox couple of the iron complexes [1] | IC50 [10] [µM] | IC50 [11] [µM] | IC50 [12] [µM] |
| --- | --- | --- | --- | --- | --- | --- | --- | --- | --- | --- | --- | --- | --- | --- |
| NC(=S)N/N=C/c1ccccc1O [STSC, salicylaldehyde TSC] | −0.14 | +1.59 | 69.7 ± 1.9 | 8.89 | 12.59 | 52.2 ± 6.8 | 88 ± 19 | 97 | 8.3 | 8.4 |  |  |  |  |
| NC(=S)NN=Cc1ncccc1N [Triapine, 3-aminopyridine-2-carbaldehyde thiosemicarbazone] |  |  | 3.28 ± 0.63 |  |  | 2.17 ± 0.15 | 31.4 ± 9.2 |  | 11.6 | 7.3 | +0.08 V vs. NHE |  |  |  |
| [Cl][Cu][Cl] [CuCl2, reference compound] |  |  |  |  |  |  |  |  |  |  |  | 48.7 ± 0.4 | 44.1 ± 0.4 | 43.9 ± 0.3 |
| NC(=O)N/N=C/c1ccccc1O [SSC, salicylaldehyde semicarbazone] |  | +0.94 |  | 9.32 | > 12.8 |  |  | 100 |  |  |  |  |  |  |
